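48-hour exposure; five concentrations; linearly interpolated endpoints. Here, GI50 denotes the concentration required for 50% inhibition of growth.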 Calls of active or inactive are those of the source. Cut-off read from the data, not from the text of the source: active = GI50 up to about 1.1 µM and inactive = higher.
Key:
Assay in all cases: NCI anticancer screen, dose series, 48 h
[1] = test system: OVCAR-4
[2] = test system: A498
[3] = test system: OVCAR-5
[4] = test system: LOX IMVI
[5] = test system: HOP-62
[6] = test system: SR
[7] = test system: TK-10
[8] = test system: LXFL 529
[9] = test system: RPMI-8226
[10] = test system: NCI-H226
[11] = test system: UO-31
[12] = test system: UACC-257
[13] = test system: OVCAR-8
[14] = test system: CCRF-CEM
[15] = test system: SNB-75
[16] = test system: COLO 205
[17] = test system: MDA-MB-231
[18] = test system: BT-549

Measured: GI50

CCOc1ccccc1NC(=O)CCC(=O)OC
inactive: [1] > 100 µM | [2] > 100 µM | [3] > 100 µM | [4] > 31.6 µM | [5] > 100 µM | [6] > 47 µM | [7] > 100 µM | [8] > 100 µM | [9] > 48.3 µM | [10] > 100 µM | [11] > 100 µM | [12] > 100 µM | [13] > 100 µM | [14] > 45.6 µM | [15] > 100 µM | [16] > 58.2 µM

C/C=C/C1(C)/C(=N\O)C(C)(CCC)C(=O)N1O (configuration not stated)
inactive: [1] > 100 µM | [2] > 100 µM | [3] > 100 µM | [4] > 100 µM | [5] > 100 µM | [6] > 100 µM | [7] > 100 µM | [8] > 100 µM | [9] > 100 µM | [10] > 100 µM | [11] > 100 µM | [12] > 100 µM | [13] > 100 µM | [14] > 100 µM | [15] > 100 µM | [16] > 100 µM

C/C(CCc1ccccc1)=N\NC(N)=S
inactive: [1] > 100 µM | [2] > 100 µM | [3] > 100 µM | [4] > 100 µM | [5] > 100 µM | [6] 75.2 µM | [7] > 100 µM | [8] 43 µM | [9] 27.3 µM | [10] > 100 µM | [11] > 100 µM | [12] > 100 µM | [13] > 100 µM | [14] 75.5 µM | [15] 76.4 µM | [16] > 100 µM

Oc1cc(-c2ccccc2)nc2cc3c(cc12)OCO3
inactive: [1] > 97.3 µM | [2] 15.1 µM | [3] > 84.3 µM | [4] 11.6 µM | [5] 9.55 µM | [6] 3.36 µM | [7] 39 µM | [8] 1.82 µM | [17] 85.5 µM | [18] 40.8 µM | [9] 11 µM | [10] 11.8 µM | [11] 13.1 µM | [12] 44.5 µM | [13] 14.5 µM | [14] 12.2 µM | [15] 2.6 µM | [16] 6.21 µM

COC(=O)C(CCC1(C)OCCO1)C(C)=O (configuration not stated)
inactive: [1] > 100 µM | [2] > 100 µM | [3] > 100 µM | [4] > 100 µM | [5] > 100 µM | [6] 84.3 µM | [7] > 100 µM | [8] > 100 µM | [10] > 100 µM | [11] > 100 µM | [12] > 100 µM | [13] > 100 µM | [14] > 100 µM | [15] > 100 µM | [16] > 100 µM

CCCCOC(=O)CNC(=O)OCCCCC#CC#CCCCCOC(=O)NCC(=O)OCCCC
inactive: [1] > 100 µM | [2] > 100 µM | [3] > 100 µM | [4] > 100 µM | [5] > 100 µM | [6] > 100 µM | [7] > 100 µM | [8] > 100 µM | [9] > 100 µM | [10] > 100 µM | [11] > 100 µM | [12] > 100 µM | [13] > 100 µM | [14] > 100 µM | [15] > 100 µM | [16] > 100 µM

COc1ccccc1/C=C1\CCC(CCN2CCOCC2)C1=O (configuration not stated)
inactive: [1] 37.8 µM | [2] > 100 µM | [3] > 100 µM | [4] 63.2 µM | [5] > 100 µM | [6] > 100 µM | [7] 93.1 µM | [8] > 100 µM | [9] 34 µM | [10] > 100 µM | [11] 90.4 µM | [12] > 100 µM | [13] > 100 µM | [14] 38.7 µM | [15] 49 µM

Source: ChEMBL document CHEMBL1201862, “PubChem BioAssay data set” (2004)
